Data: patent US20250122207A1, “AP2 ASSOCIATED KINASE 1 INHIBITORS AND USES THEREOF” (Satellos Bioscience Inc., priority 2023, published 2025)
pIC50: −log10 of the molar value. Where two headings read alike, the source gives them in different places.

Columns and labels:
[1] = biological target: AAK1 (Homo sapiens, UniProt Q2M2I8); assay: pAP2M1 cell-based assay (in-cell Western)
Excerpt: pAP2M1 Cell-Based Assay (in-Cell Western):
The plate was read on Licor Odyssey CLx imaging system (LICOR) to acquire fluorescence intensity at 700 channel and 800 channel.
Data analysis: Fluorescence intensity at 700 channel served as internal standard and 800 channel were normalized with 700 channel.

[2] = biological target: T1, GAK (amino acids Q25-N335) (Homo sapiens, UniProt O14976); assay: GAK pSENs assay; format: biochemical
T1 construct: against GAK (amino acids Q25-N335); 6His (N, cleaved yes)
T1 sequence (O14976 25-335): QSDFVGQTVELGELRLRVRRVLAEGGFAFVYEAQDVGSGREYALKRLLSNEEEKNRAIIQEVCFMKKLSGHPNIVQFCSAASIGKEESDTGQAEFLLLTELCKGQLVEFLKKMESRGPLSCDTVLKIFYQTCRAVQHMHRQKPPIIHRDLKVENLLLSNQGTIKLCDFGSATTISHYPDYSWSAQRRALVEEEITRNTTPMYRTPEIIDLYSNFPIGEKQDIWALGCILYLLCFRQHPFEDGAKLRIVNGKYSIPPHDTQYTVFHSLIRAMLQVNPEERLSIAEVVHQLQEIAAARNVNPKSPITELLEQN
Method: The recombinant proteins were independently expressed in Escherichia coli BL21(DE3) cells cultured in Luria-Bertani (LB) medium until OD600 reached 0.6-0.8, then cooled to 15° C. and supplemented with 0.5 mM isopropyl 1-thio-D-galactopyranoside (IPTG) induce protein expression 16 h. Cells were harvested and resuspended in lysis buffer (50 mM HEPES pH 7.5, 500 mM NaCl, 5 mM imidazole, 5% glycerol, 0.5 mM Tris (2-carboxyethyl) phosphine (TCEP), cOmplete Protease Inhibitor Tablet (Roche)) and lysed by microfludics high pressure homogenizer (UH-06, Union-Biotech). Proteins were purified using […] chromatography (His FF column, Bestchrom) and eluted stepwise in binding buffer with 20-300 mM imidazole. Removal of the hexahistidine tag was performed at 4° C. overnight using recombinant TEV protease and reacted with BirA to obtain the corresponding biotinylated-AAK1, BIKE or GAK proteins. Further separated in the reverse Strep column (Strep-Tactin® XT, IBA). The Biotin elution sample was collected containing untagged biotinylated protein was then purified by Ion-exchange chromatography (Mono Q 10/100 GL, Cytiva) and Size-exclusion chromatography (HiLoad 16/600 Superdex 200 pg, Cytiva). The pure protein was stored in a storage buffer 50 mM HEPES (pH 7.5), 300 mM NaCl, 5% glycerol at −80° C. Protein were characterized by SDS-PAGE, LC-MS and aSEC.
This example describes one illustrative method for determining the IC50 of the compounds of the present invention against GAK (amino acids Q25-N335).

[3] = biological target: T2, BIKE (amino acids S38-E345) (K320A, K321A) (Homo sapiens, UniProt Q9NSY1, K320A/K321A); assay: BIKE pSENs assay; format: biochemical
T2 construct: against BIKE (amino acids S38-E345) (K320A, K321A); 6His (N, cleaved yes)
Outline: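 E. coli-expressed, biotinylated, tag-free BIKE at 20 nM in HEPES pH 7.5 buffer with 10 mM MgCl2 preincubated with compound 15 min at 25° C. Reaction started with 30 uM AQT0759 sensor peptide and 40 uM ATP (concentrations before 1:1 mixing).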

[4] = biological target: T3, AAK1 (amino acids T27-A365) (Homo sapiens, UniProt Q2M2I8); assay: AAK1 pSENs assay; format: biochemical
T3 construct: against AAK1 (amino acids T27-A365); 6His (N, cleaved yes)
Outline: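 Biotinylated, tag-free AAK1 T27-A365 expressed in E. coli was held at 20 nM in enzyme solution (HEPES pH 7.5, 10 mM MgCl2, DTT, EGTA, Brij35, BSA) and preincubated with compound for 15 min at 25 °C. The reaction was started with an equal volume of substrate solution containing 30 uM AQT0759 peptide and 70 uM ATP. IC50 determined.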

[5] = Hela cells co-transfected with AP2M1 and AAK1, 3 hr treatment, class symbols, read-out: AAK1 In-cell Western: IC50
[6] = class symbols, read-out: GAK pSENs:IC50
[7] = class symbols, read-out: BIKE pSENs: IC50
[8] = class symbols, read-out: AAK1 pSENs: EIC50

Chain of AAK1 (Q2M2I8 whole entry): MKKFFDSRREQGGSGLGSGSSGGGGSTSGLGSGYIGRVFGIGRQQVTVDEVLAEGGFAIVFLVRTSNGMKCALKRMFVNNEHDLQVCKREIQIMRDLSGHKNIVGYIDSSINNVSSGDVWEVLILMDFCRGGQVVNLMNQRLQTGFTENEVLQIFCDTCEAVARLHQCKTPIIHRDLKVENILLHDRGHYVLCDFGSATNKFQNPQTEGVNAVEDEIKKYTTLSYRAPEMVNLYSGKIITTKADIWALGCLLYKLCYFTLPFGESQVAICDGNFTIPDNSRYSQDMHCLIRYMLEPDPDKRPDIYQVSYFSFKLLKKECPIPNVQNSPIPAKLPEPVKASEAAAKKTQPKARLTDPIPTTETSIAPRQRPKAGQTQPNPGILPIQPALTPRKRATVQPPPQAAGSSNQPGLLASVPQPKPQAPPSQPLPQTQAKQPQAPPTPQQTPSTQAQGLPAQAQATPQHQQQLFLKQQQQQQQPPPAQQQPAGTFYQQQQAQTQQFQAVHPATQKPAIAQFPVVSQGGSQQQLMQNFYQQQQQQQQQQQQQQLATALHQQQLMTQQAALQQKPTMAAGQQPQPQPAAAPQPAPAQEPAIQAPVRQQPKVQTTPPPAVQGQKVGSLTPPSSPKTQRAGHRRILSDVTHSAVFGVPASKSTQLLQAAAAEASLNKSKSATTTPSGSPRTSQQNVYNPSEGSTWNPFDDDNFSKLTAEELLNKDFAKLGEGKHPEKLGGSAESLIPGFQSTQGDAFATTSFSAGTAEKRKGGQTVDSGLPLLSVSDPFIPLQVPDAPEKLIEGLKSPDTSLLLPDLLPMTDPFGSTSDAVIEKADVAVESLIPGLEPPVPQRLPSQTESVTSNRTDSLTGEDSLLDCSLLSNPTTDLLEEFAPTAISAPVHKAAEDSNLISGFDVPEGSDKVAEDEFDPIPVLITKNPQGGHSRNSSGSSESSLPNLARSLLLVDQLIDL
T3 sequence (Q2M2I8 27-365): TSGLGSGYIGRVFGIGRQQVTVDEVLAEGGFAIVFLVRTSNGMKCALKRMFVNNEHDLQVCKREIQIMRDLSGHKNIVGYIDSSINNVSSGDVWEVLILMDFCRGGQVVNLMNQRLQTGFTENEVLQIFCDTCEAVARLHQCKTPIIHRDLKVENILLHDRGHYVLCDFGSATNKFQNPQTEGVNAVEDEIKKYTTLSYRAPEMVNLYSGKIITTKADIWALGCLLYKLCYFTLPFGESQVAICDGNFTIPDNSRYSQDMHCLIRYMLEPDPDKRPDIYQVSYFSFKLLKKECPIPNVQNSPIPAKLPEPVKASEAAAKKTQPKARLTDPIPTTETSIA
T2 sequence (Q9NSY1 38-345 K320A/K321A): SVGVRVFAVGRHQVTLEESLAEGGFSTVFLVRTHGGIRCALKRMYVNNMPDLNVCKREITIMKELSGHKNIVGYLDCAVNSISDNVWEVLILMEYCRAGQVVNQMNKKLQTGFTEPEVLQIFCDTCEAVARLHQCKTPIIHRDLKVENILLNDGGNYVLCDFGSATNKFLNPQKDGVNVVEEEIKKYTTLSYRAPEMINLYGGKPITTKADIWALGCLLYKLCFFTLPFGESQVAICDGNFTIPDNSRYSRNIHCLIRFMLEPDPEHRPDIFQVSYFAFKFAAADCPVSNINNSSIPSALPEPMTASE

pIC50 [1, 5]	pIC50 [2, 6]	pIC50 [3, 7]	pIC50 [4, 8]	Compound	pIC50 [1]	pIC50 [2]	pIC50 [3]	pIC50 [4]
5.82 to 6.30	6.30 to 6.82	6.82 to 7.29	7.30 to 9.00	CC(C)(C)OC(=O)NCCNc1ccc2ncc(-c3cccnc3OC3CC3)n2n1 [Compound I-129, tert-butyl N-[2-[[3-[2-(cyclopropoxy)-3-pyridyl]imidazo[1,2-b]pyridazin-6-yl]amino]ethyl]carbamate]	–	–	–	–
7.30 to 9.00	6.82 to 7.29	6.82 to 7.29	7.30 to 9.00	C#CC1(OC(=O)N2CCN(c3ccn4ncc(-c5cccnc5OC5CC5)c4n3)CC2)CCNC1 (centres unmarked) [Compound I-16-7, 3-ethynylpyrrolidin-3-yl-4-(3-(2-cyclopropoxypyridin-3-yl)pyrazolo[1,5-a]pyrimidin-5-yl)piperazine-1-carboxylate]	–	–	–	–
5.82 to 6.30	5.82 to 6.30	6.82 to 7.29	7.30 to 9.00	COc1ncccc1-c1cnn2ccc(NCCN(C)C(=O)O[C@H]3CO[C@H]4OCC[C@H]43)nc12 [Compound I-70, (3R,3aS,6aR)-hexahydrofuro[2,3-b]furan-3-yl (2-((3-(2-methoxypyridin-3-yl)pyrazolo[1,5-a]pyrimidin-5-yl)amino)ethyl)(methyl)carbamate]	–	–	–	–
5.82 to 6.30	5.82 to 6.30	5.82 to 6.30	6.82 to 7.29	CC(C)(C)OC(=O)NCCNc1nc2c(-c3cccnc3OC3CC3)cnn2cc1F [Compound I-124, tert-butyl N-[2-[[3-[2-(cyclopropoxy)-3-pyridyl]-6-fluoro-pyrazolo[1,5-a]pyrimidin-5-yl]amino]ethyl]carbamate]	–	–	–	–
5.82 to 6.30	5.82 to 6.30	5.82 to 6.30	7.30 to 9.00	CN(CCNc1ccn2ncc(-c3cccnc3OC3CC3)c2n1)C(=O)O[C@H]1CO[C@H]2OCC[C@H]21 [Compound I-71, (3R,3aS,6aR)-hexahydrofuro[2,3-b]furan-3-yl (2-((3-(2-cyclopropoxypyridin-3-yl)pyrazolo[1,5-a]pyrimidin-5-yl)amino)ethyl)(methyl)carbamate]	–	–	–	–
5.82 to 6.30	< 5.82	6.82 to 7.29	7.30 to 9.00	CC(C)(C)OC(=O)N1CCN(c2ccn3ncc(-c4cccnc4O)c3n2)CC1 [Compound I-102, tert-butyl 4-[3-(2-hydroxy-3-pyridyl)pyrazolo[1,5-a]pyrimidin-5-yl]piperazine-1-carboxylate]	–	–	–	–
6.30 to 6.82	6.30 to 6.82	6.30 to 6.82	7.30 to 9.00	CC(C)Oc1ncccc1-c1cnn2ccc(N3CCN(C(=O)OC4(C)CCNC4)CC3)nc12 (centres unmarked) [Compound I-21-5, (3-methylpyrrolidin-3-yl)-4-[3-(2-isopropoxy-3-pyridyl)pyrazolo[1,5-a]pyrimidin-5-yl]piperazine-1-carboxylate]	–	–	–	–
6.30 to 6.82	5.82 to 6.30	6.82 to 7.29	7.30 to 9.00	COc1cnc(OC2CC2)c(-c2cnn3ccc(N4CCN(C(=O)O[C@H]5CC(=O)N(C)C5)CC4)nc23)c1 [Compound I-87]	–	–	–	–
6.82 to 7.29	6.30 to 6.82	6.30 to 6.82	7.30 to 9.00	C#C[C@]1(OC(=O)N2CCN(c3ccn4ncc(-c5cccnc5OC5CC5)c4n3)CC2)CCNC1 [Compound I-15, [(3R)-3-Ethynylpyrrolidin-3-yl]-4-[3-[2-(cyclopropoxy)-3-pyridyl]pyrazolo[1,5-a]pyrimidin-5-yl]piperazine-1-carboxylate]	–	–	–	–

Continued, compound first:

Compound	pIC50 [1, 5]	pIC50 [2, 6]	pIC50 [3, 7]	pIC50 [4, 8]	pIC50 [1]	pIC50 [2]	pIC50 [3]	pIC50 [4]
Clc1cnn2ccc(N3CCNCC3)nc12 [Compound I-104, 3-chloro-5-piperazin-1-yl-pyrazolo[1,5-a]pyrimidine]	< 5.82	< 5.82	< 5.82	< 5.82	–	–	–	–
COc1ncccc1-c1cnn2ccc(N3CCN(C(=O)OC4(C)CCNC4)CC3)nc12 (centres unmarked) [Compound I-8, (3-Methylpyrrolidin-3-yl)-4-[3-(2-methoxy-3-pyridyl)pyrazolo[1,5-a]pyrimidin-5-yl]piperazine-1-carboxylate]	7.30 to 9.00	6.30 to 6.82	7.30 to 9.00	7.30 to 9.00	–	–	–	–
C#CC1(OC(=O)N2CCN(c3ccn4ncc(-c5cccnc5OC)c4n3)CC2)CCNC1 (centres unmarked) [Compound I-9, (3-Ethynylpyrrolidin-3-yl) 4-[3-(2-methoxy-3-pyridyl)pyrazolo[1,5-a]pyrimidin-5-yl]piperazine-1-carboxylate]	6.82 to 7.29	6.30 to 6.82	7.30 to 9.00	7.30 to 9.00	–	–	–	–
CN(CCNc1ccn2ncc(-c3cccnc3OC3CC3)c2n1)C(=O)OC(C)(C)C [Compound I-12, tert-butyl N-[2-[[3-[2-(Cyclopropoxy)-3-pyridyl]pyrazolo[1,5-a]pyrimidin-5-yl]amino]ethyl]-N-methyl-carbamate]	6.30 to 6.82	5.82 to 6.30	6.82 to 7.29	7.30 to 9.00	–	–	–	–
COc1ncccc1-c1cnn2ccc(N3CCN(C(=O)OC4CCNC4)CC3)nc12 (centres unmarked) [Compound I-5, Pyrrolidin-3-yl4-[3-(2-methoxy-3-pyridyl)pyrazolo[1,5-a]pyrimidin-5-yl]piperazine-1-carboxylate]	6.30 to 6.82	5.82 to 6.30	7.30 to 9.00	7.30 to 9.00	–	–	–	–
CC(C)(C)OC(=O)N1CCC(N2C[C@H](OC(=O)N3CCN(c4ccn5ncc(-c6cccnc6OC6CC6)c5n4)CC3)CC2=O)CC1 [Compound I-31, (R)-1-(1-(tert-Butoxycarbonyl)piperidin-4-yl)-5-oxopyrrolidin-3-yl 4-(3-(2-cyclopropoxypyridin-3-yl)pyrazolo[1,5-a]pyrimidin-5-yl)piperazine-1-carboxylate]	< 5.82	5.82 to 6.30	6.30 to 6.82	6.30 to 6.82	–	–	–	–
CN1C[C@@H](OC(=O)N2CCN(c3ccn4ncc(-c5cc(OC(F)(F)F)cnc5OC5CC5)c4n3)CC2)CC1=O [Compound I-88]	< 5.82	5.82 to 6.30	6.30 to 6.82	7.30 to 9.00	–	–	–	–
c1cc2nc(N3CCNCC3)ccn2n1 [Compound I-105, 5-piperazin-1-ylpyrazolo[1,5-a]pyrimidine]	–	–	–	–	< 5.82	< 5.82	< 5.82	< 5.82
CN1C[C@H](OC(=O)N2CCN(c3ccn4ncc(-c5cccnc5OC5CC5)c4n3)CC2)CC1=O [Compound I-94]	5.82 to 6.30	–	–	7.30 to 9.00	–	< 5.82	6.30 to 6.82	–
Brc1cnn2ccc(N3CCNCC3)nc12 [Compound I-103, 3-bromo-5-piperazin-1-yl-pyrazolo[1,5-a]pyrimidine]	–	–	–	–	< 5.82	< 5.82	< 5.82	< 5.82
CC(C)(C)OC(=O)N1CCN(c2ccn3ncc(Cl)c3n2)CC1 [Compound I-100, tert-butyl 4-(3-chloropyrazolo[1,5-a]pyrimidin-5-yl)piperazine-1-carboxylate]	< 5.82	< 5.82	< 5.82	5.82 to 6.30	–	–	–	–
[2H]C([2H])([2H])N1C[C@@H](OC(=O)N2CCN(c3nc4c(-c5cc(OC)cnc5OC5CC5)cnn4cc3F)CC2)CC1=O [Compound I-117, [(3S)-5-oxo-1-(trideuteriomethyl)pyrrolidin-3-yl]4-[3-[2-(cyclopropoxy)-5-methoxy-3-pyridyl]-6-fluoro-pyrazolo[1,5-a]pyrimidin-5-yl]piperazine-1-carboxylate]	–	5.82 to 6.30	7.30 to 9.00	7.30 to 9.00	–	–	–	–
